This is an account of results in publication PMC6402191 (Clinical and Translational Science, 2017).

Molecules are shown by their SMILES. Where two headings read alike, the source gives them in different places.

The nature of series [1]: Human mass balance study of baricitinib. Type of series: in vivo.
A further series deals with T1, OATP1B1 (Homo sapiens, UniProt Q9Y6L6).
T1 sequence (Q9Y6L6 1-691): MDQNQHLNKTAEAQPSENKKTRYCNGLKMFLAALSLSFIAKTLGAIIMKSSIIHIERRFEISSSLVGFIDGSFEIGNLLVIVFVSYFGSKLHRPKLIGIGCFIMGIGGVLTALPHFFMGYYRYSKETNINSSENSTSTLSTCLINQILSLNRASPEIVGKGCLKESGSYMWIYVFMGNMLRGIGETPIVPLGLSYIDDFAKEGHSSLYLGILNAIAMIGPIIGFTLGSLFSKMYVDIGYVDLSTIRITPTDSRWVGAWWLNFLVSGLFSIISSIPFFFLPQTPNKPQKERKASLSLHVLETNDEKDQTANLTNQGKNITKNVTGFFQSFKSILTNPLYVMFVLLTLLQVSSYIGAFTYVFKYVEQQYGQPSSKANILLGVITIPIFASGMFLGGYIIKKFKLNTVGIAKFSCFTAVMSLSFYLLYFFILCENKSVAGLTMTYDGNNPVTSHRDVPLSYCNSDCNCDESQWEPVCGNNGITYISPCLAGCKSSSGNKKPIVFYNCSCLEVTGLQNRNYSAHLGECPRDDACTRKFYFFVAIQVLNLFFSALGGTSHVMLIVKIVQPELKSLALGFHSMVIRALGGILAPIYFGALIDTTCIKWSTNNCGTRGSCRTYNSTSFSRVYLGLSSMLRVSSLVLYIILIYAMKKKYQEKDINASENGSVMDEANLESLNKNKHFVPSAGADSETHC
The series can be described thus: Baricitinib substrate study in OATP1B1-transfected HEK-PEAK cells. Format: in vitro ADME.

In the next series the target is MATE2-K (Homo sapiens, UniProt Q86VL8). The series is described as follows: Uptake of baricitinib into MATE2-K-transfected HEK cells. Type of series: in vitro ADME.
Sequence of MATE2-K (Q86VL8 1-566 isoform Q86VL8-3): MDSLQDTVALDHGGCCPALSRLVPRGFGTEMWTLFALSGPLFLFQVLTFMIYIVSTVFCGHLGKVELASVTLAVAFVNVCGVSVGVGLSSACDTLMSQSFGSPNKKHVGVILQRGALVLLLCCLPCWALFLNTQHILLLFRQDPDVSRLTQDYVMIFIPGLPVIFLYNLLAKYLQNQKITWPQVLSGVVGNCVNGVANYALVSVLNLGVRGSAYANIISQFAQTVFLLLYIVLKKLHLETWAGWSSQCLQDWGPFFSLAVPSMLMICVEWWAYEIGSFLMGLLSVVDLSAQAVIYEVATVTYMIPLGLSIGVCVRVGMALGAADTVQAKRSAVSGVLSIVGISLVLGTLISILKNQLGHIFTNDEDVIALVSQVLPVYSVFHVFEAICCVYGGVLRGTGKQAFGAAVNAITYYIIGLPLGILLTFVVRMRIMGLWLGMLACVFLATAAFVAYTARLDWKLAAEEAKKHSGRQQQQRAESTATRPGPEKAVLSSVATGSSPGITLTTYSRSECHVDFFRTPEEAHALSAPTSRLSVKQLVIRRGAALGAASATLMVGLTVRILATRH

Consider `CCS(=O)(=O)N1CC(CC#N)(n2cc(-c3ncnc4[nH]ccc34)cn2)C1` [Baricitinib], for which the “Fa (fraction absorbed)” value in series [1] (calculated from human mass balance study) is reported as 0.8. Moreover, in series [1] (human, blood and plasma, oral), the blood plasma ratio came out at 1.26. Moreover, the “dose found as parent compound in feces” value in series [1] (in vivo) is recorded as 20 % of the dose. Further, the OATP1B1 substrate result at OATP1B1 is “not a substrate”. The MATE2-K substrate result at MATE2-K is on record as “substrate of MATE2‐K”. Moreover, the results for the “MATE2‐K Vmax” value on MATE2-K and at MATE2-K (PBPK input) were 1315 ± 129 pmol/min/mg protein and 657.5 pmol/min/10^6 cells, respectively. At MATE2-K (0.5 min), the “Uptake into MATE2-K cells relative to control cells” value is recorded as “approximately three times greater”.
